Test results: patent US7220822B2, “CD28 mimetics for blocking T cell mediated immune reactions” (The Ohio State University, priority 2000, dated 2007)
Entries after “also recorded” stand apart in the source; their conditions may differ. Square brackets hold non-standard residues; d marks the D form. Peptide text beside a SMILES is read from it.

How the values were obtained:
[1] = test system: CD4+ LNC from Vα4/Vβ8.2 TCR transgenic mice; assay type: cell-based, mouse; conditions: CD4+ LNC and spleen cells, NAc 1-11 10 μg/ml, all concentrations used
Description: (§1) The in vitro effect of varying concentration of the CD 28 peptide mimetics on CD4+ lymph node cells and spleen cells from transgenic mice bearing the Vα 4 Vβ8.2 TCR specific for MBP Ac 1-11 was determined.
(§2) CD4+ T cells were purified from pooled peripheral lymph nodes (inguinal, axillary, brachial, cervical, popliteal), and mesenteric lymph nodes and spleen of 6–8 wk old Vα4/Vβ8.2 TCR transgenic mice by positive selection. Single cell suspensions were prepared by lympholyte M gradient, washed, counted and incubated with magnetic bead conjugated anti-mouse CD4 (L3T4) (Miltenyi Biotech Corporation) followed by positive selection using magnetic selection columns. Purity of the CD4^+ cells was greater than 90% as assessed by staining with FITC labeled anti-mouseVβ8.2 mAb (Pharmingen). During the selection process, T cells maintain a naïve phenotype with no evidence for T cell activation as measured by proliferation in culture. Purified CD4+ T-cells (5×10^4 cells/well) were cultured together with wild type splenocytes from B10.PL mice as APC's (10^5 cells/well) in RPMI 1640 containing 10% FCS, 25 mM HEPES, 2 mM L-glutamine, 50 U/ml penicillin, 50 μg/ml streptomycin, and 5×10–5 M 2-ME in round-bottom 96-well plates and MBP (40 μg/ml) or MBP NAc1-11 (10 μg/ml) or media only in the presence or absence of synthetic CD28 peptide analogues at different concentrations in triplicate wells for 72 h, including a final 18-h pulse with [^3H] thymidine. Cultures were harvested onto glass-fiber mats using a Skatron harvester (Skatron, Sterling, Va.) and were counted by liquid scintillation on LKB Betaplate (LKB, Rockville, Md.). The means of the triplicate were determined and the results are expressed as delta cpm (mean counts per minute of cultures with Ag-mean counts per minute of cultures with medium alone)±SD.

[2] = test system: CD4+ LNC from TCR Vβ 8.2 Vα 4 transgenic mice; experiment: Apoptosis (TUNEL, flow cytometry) of antigen-stimulated Vβ8.2+ CD4+ lymph node cells in vitro; assay type: cell-based, mouse
Description: (§3) To investigate whether the observed decrease in proliferative responses following treatment with CD28 peptides is a result of cell loss, cell death was measured by enzymatic in-situ labeling. Apoptotic cells among MBP NAc1-11 stimulated TCR Vβ 8.2+ CD4+ T cells were detected by staining with FITC labeled Tdt (terminal deoxynucleotidyl transferase). Cells incubated in DNAse served as positive control.
(§4) CD4+ T cells from pooled lymph nodes and spleen from B10.PL TCR Vβ 8.2 Vα 4 transgenic mice were cultured in RPMI 1640 in a 96 well round-bottom plate, essentially under the conditions specified for proliferation assays. Cells were harvested at the end of 48 hours and apoptotic cells among TCR Vβ 8.2+ CD4+ T cells were detected by the TUNEL method. Briefly, after washing twice with PBS containing 1-% rat serum, the cells were stained with PE labeled anti-mouseVβ 8.1,8.2 TCR (clone MR5-2) (Pharmingen, San Diego, Calif.) for 30 min at room temperature and washed. Subsequently, the cells were fixed with 4% paraformaldehyde in PBS for 30 min at room temperature. Then the cells were washed and permeabilized with 0.1% Triton X-100 in 0.1% sodium citrate for 2 min at 4° C. After washing, the DNA strand breaks in the cells were detected by incubating the cells with fluorescein labeled TUNEL mix (terminal deoxynucleotidyl transferase (Tdt)) for 60 min at 37° C. using an in situ cell death detection kit (Boehringer Mannheim, Mannheim, Germany) according to the manufacturer's recommendations. As a positive control, cells were incubated in DNAse (1 mg/ml) for 10 minutes at room temperature prior to incubation with TdT. The negative control consisted of cells incubated without TdT. Cells were then washed with PBS and analyzed by flow cytometry.

CD4+Vβ8.2+ spleen cells = experiment: Apoptosis (TUNEL, flow cytometry) of antigen-stimulated CD4+Vβ8.2+ spleen cells in vitro; assay type: cell-based, mouse; conditions: 150 μM peptide, data not shown
Description: as §3
as §4, with “Subsequently, the cells were fixed with 4% paraformaldehyde in PBS for 30 min at room temperature. Then the cells were washed and permeabilized with 0.1% Triton X-100 in 0.1% sodium citrate for 2 min at 4° C.” left out, “As a positive control, cells were incubated in DNAse (1 mg/ml) for 10 minutes at room temperature prior to incubation with TdT. The negative control consisted of cells incubated without TdT.” left out

[3] = test system: lymph node cells of MBP-primed mice; experiment: IL-2 ELISPOT of draining lymph node cells from peptide-treated MBP-immunized mice; assay type: in vivo, mouse; conditions: mice treated on day 0 of immunization, ELISPOT on restimulation
Description: Ninety-six well unifilter plates (Polyfiltronics, Rockland, Md.) were coated overnight at 4° C. with rat anti-mouse IL-2 (Clone JES6-1A12) (Pharmingen, Calif.) at 4 μg/ml. The plates were then washed 4× with sterile PBS and blocked with 1% BSA in DMEM for 2 h at room temperature. Subsequently, isolated single cell suspensions of CD4+ LNC (5×10^6 cells/ml) and splenocytes (10×10^6 cells/ml) were added with the antigens and CD28 peptides under the conditions as specified for the proliferation assays. After 24 h of culture in the incubator, the cells were removed by washing 3× with PBS and 4× with PBS containing Tween (1:2000) (PBST). Then biotinylated anti mouse-IL-2 (Clone JES6-5H4) (Pharmingen, Calif.) 2 μg/ml was added and incubated at 4° C. overnight. After washing 3× with PBST and 3× with PBS, goat anti-biotin antibody conjugated to alkaline phosphatase (Vector Laboratories Inc, Burlingame, Calif.) diluted to 1:1000 in PBST containing 1% BSA was added and incubated for 2 h at room temperature. The spots were visualized by adding BCIP/NBT phosphatase substrate (Kirkeguard & Perry Laboratories, Gaithesburg, Md.). Image analysis of ELISA spot assays was performed on a Series 1 Immunospot Image Analyzer (Autoimmun Diagnostika (US) Inc.) customized for analyzing ELISA spots to meet objective criteria for size, chromatic density, shape and color.
MBP reactive T cells that induce EAE are known to display a Th1 phenotype secreting the proinflammatory cytokines IL-2, […] and TNF-β (36. Kay, B. K., M. P. Williamson, and M. Sudol. 2000. Faseb J 14, no. 2:231). ELISPOT assay was used to assess in vitro cytokine production by draining lymph node cells and splenocytes upon restimulation from in vivo MBP-primed T cells. Mice were treated as described in Example 3, on day 0 of immunization.

[4] = test system: CD4+ splenocytes from Vα4/Vβ8.2 TCR transgenic mice; assay type: cell-based, mouse; conditions: 72 h
Description: as §1, §2

[5] = test system: CD4+ lymphocytes of immunized mice; experiment: Apoptosis of CD4+ T cells in peptide-treated EAE mice (enzymatic labeling of nicked ends); assay type: in vivo, mouse; conditions: mice treated on the day of immunization
Description: This was done by quantifying the DNA strand breaks in CD4+ lymphocytes detected by enzymatic labeling of nicked ends. Cells incubated in DNAse served as positive control.

[6] = 150 μM peptide, 48 hr, versus untreated

SMILES | proliferative response / inhibition of T cell proliferation (in words) [1] | percentage of apoptotic cells (in words) [2, 6] | percentage of apoptotic cells (in words) ([2]; 150 μM peptide, 48 hr, versus untreated, listed as ELCD28) | apoptosis (in words) (CD4+Vβ8.2+ spleen cells) | frequency of IL-2 secreting lymph node cells [3] | maximum inhibition of proliferative response [4] [%] | percentage of apoptotic cells (in words) ([2]; 75 μM peptide, 48 hrs) | percentage of apoptotic CD4+ T cells [5] [%]
CC[C@H](C)[C@H](NC(=O)[C@@H](NC(=O)CNC(=O)[C@H](CC(N)=O)NC(=O)[C@H](CO)NC(=O)[C@H](CCCNC(=N)N)NC(=O)[C@H](CCC(=O)O)NC(=O)[C@H](CC(N)=O)NC(=O)[C@H](CC(=O)O)NC(=O)[C@H](CC(C)C)NC(=O)[C@H](Cc1ccc(O)cc1)NC(=O)[C@@H]1CCCN1C(=O)[C@@H]1CCCN1C(=O)[C@@H]1CCCN1C(=O)[C@H](Cc1ccc(O)cc1)NC(=O)[C@H](CCSC)NC(=O)[C@H](Cc1ccccc1)NC(=O)[C@H](CCC(=O)O)NC(=O)[C@@H](NC(=O)[C@H](CCCCN)NC(C)=O)[C@@H](C)CC)[C@@H](C)O)C(N)=O [EL CD28] (Ac-KIEFMYPPPYLDNERSNGTI-NH2) | significantly less | Significant increase | significantly higher percentage | increase in apoptosis | 2776+/−53.5 | – | – | –
CC[C@@H](C)[C@@H](NC(C)=O)C(=O)N[C@@H](C(=O)NCC(=O)N[C@H](CC(N)=O)C(=O)N[C@H](CO)C(=O)N[C@H](CCCNC(=N)N)C(=O)N[C@H](CCC(=O)O)C(=O)N[C@H](CC(N)=O)C(=O)N[C@H](CC(=O)O)C(=O)N[C@H](CC(C)C)C(=O)N[C@H](Cc1ccc(O)cc1)C(=O)N1CCC[C@@H]1C(=O)N1CCC[C@@H]1C(=O)N1CCC[C@@H]1C(=O)N[C@H](Cc1ccc(O)cc1)C(=O)N[C@H](CCSC)C(=O)N[C@H](Cc1ccccc1)C(=O)N[C@H](CCC(=O)O)C(=O)N[C@@H](C(=O)N[C@H](CCCCN)C(N)=O)[C@H](C)CC)[C@H](C)O [RI CD28] (Ac-[dI][dT]G[dN][dS][dR][dE][dN][dD][dL][dY][dP][dP][dP][dY][dM][dF][dE][dI][dK]-NH2) | significantly less | significantly higher percentage; also recorded: Significant increase | – | increase in apoptosis | 1753+/−37.7 | 42 | Significant increase | 16
